12 compounds from US10059721B2, “Substituted thieno[3,2-b]pyrazines for inhibiting cancer cell proliferation and inducing cancer cell apoptosis” (DONGGUK UNIVERSITY INDUSTRY-ACADEMIC COOPERATION FOUNDATION, priority 2014, dated 2018) can be followed below.

A value given as a limit tells only on which side of the number the result lay.

Holding throughout (type): cell-based
One assay relates to HUVEC. The assay is described as follows: Cell growth inhibition experiment (SRB), HUVEC. The following applies: Homo sapiens, incubated for 96 hours, read-out: IC50 (μM) of cancer cell lines HUVEC. On the procedure:
(§1) The 4-(aryl)-N-(2-alkoxythieno[3,2-b]pyrazin-3-yl)-piperazin-1-carboxamide derivative compounds synthesized according to Examples 1 to 27 of the present invention were treated with various human tissue-derived cancer cell lines cultured according to Experimental Example 1, and thus the inhibitory effect of the growth of human cancer cells was confirmed. The cell growth inhibition experiment was conducted using sulforhodamine B (SRB) technique (Skehan et al., J. National Cancer Institute, 1990, 82: 1107-1112). Specifically, each cell line was seeded in a 96-well plate at a density of 2 to 3×10^3 cells/well, cultured overnight, and then treated with the 4-(aryl)-N-(2-alkoxythieno[3,2-b]pyrazin-3-yl)-piperazin-1-carboxamide derivative compounds of the present invention. The experiment was repeated 3 times for each compound. Cells treated with each compound were additionally incubated for 96 hours, fixed with 10% trichloroacetic acid (TCA), and then left at 4° C. for 1 hour. The resultant was washed 3 times with distilled water. Thereafter, each cell was treated with 0.4% sulforhodamine B dissolved in 1% acetic acid, stained for 30 minutes, and then washed 4 times with 1% acetic acid. The resultant was dried in the air. After shaking the resultant in Tris solution (10 mM) for 5 minutes, the absorbance was measured at 530 nm using a Benchmark Plus Microplate reader (Bio-Rad Laboratories, Hercules, Calif.).
(§2) In order to convert the OD530 value to the number of viable cells per each well, the measured OD530 value was compared to the standard OD530-vs.-cell number curve of each cell line. The percent survival was calculated using the following formula: % survival=Nlive cells(test)/Nlive cells(control)×100
(§3) IC50 values were calculated by nonlinear regression analysis.

Assay [1] concerns HN31 (head and neck cancer) cell line. The assay is described as follows: Cell growth inhibition experiment (SRB), HN31. As to conditions: Homo sapiens, incubated for 96 hours, read-out: IC50 (μM) of cancer cell lines HN31. As for the experimental part: (§4) The cell lines below were used in order to confirm the efficacy of the compounds synthesized in Examples 1 to 27. Human PANC-1 (pancreatic cancer) and MDA-MB-231 (breast cancer) cell lines were obtained from American Type Culture Collection (ATCC; Manassas, Va.); and HN31 (head and neck cancer) and UMRC2 (kidney cancer) cell lines were secured from the United States National Institutes of Health (Bethesda, Md.). The MDA-MB-231, UMRC2, HN31, and PANC-1 cell lines were cultured in Dulbecco modified Eagle medium (DMEM) containing FBS (10%), HEPES (10 mM), penicillin (100 U/mL), and streptomycin (100 μg/mL). All cell lines were cultured in an incubator (37° C., 5% CO2).
as §1, §2, §3

Assay [2] has as its system PANC-1 (pancreatic cancer) cell line. The assay is described as follows: Cell growth inhibition experiment (SRB), PANC-1. As to conditions: Homo sapiens, incubated for 96 hours, read-out: IC50 (μM) of cancer cell lines PANC-1. As for the experimental part:
as §4, §1, §2, §3

In another assay the test system is SK-OV-3. Briefly: Cell growth inhibition experiment (SRB), SK-OV-3. As to conditions: Homo sapiens, incubated for 96 hours, read-out: IC50 (μM) of cancer cell lines SK-OV-3. On the procedure:
as §1, §2, §3

Assay [3] has as its system MDA-MB-231 (breast cancer) cell line. Briefly: Cell growth inhibition experiment (SRB), MDA-MB-231. As to conditions: Homo sapiens, incubated for 96 hours, read-out: IC50 (μM) of cancer cell lines MDA-MB-231. On the procedure:
as §4, §1, §2, §3

Assay [4] relates to UMRC2 (kidney cancer) cell line. The assay is described as follows: Cell growth inhibition experiment (SRB), UMRC2. The following applies: Homo sapiens, incubated for 96 hours, read-out: IC50 (μM) of cancer cell lines UMRC2. As for the experimental part:
as §4, §1, §2, §3

The subject of a further assay is HEK293. The assay is described as follows: Cell growth inhibition experiment (SRB), HEK293. The following applies: Homo sapiens, incubated for 96 hours, read-out: IC50 (μM) of cancer cell lines HEK293. As for the experimental part:
as §1, §2, §3

Another assay has as its system A549. Briefly: Cell growth inhibition experiment (SRB), A549. The following applies: Homo sapiens, incubated for 96 hours, read-out: IC50 (μM) of cancer cell lines A549. As for the experimental part:
as §1, §2, §3

Another assay concerns HT29. The assay is described as follows: Cell growth inhibition experiment (SRB), HT29. The following applies: Homo sapiens, HT-29, incubated for 96 hours, read-out: IC50 (μM) of cancer cell lines HT29. As for the experimental part: as §1, §2, §3

As usually defined, the IC50 is the concentration needed to halve the response being measured. As for `CCOc1nc2ccsc2nc1NC(=O)N1CCN(c2cc(OC)cc(OC)c2)CC1` [Example 13, 4-(3,5-dimethoxyphenyl)-N-(2-ethoxythieno[3,2-b]pyrazin-3-yl)piperazin-1-carboxamide], the IC50 is below 2.5 µM with HUVEC; 0.72 µM in assay [1]; 0.65 µM in [2]; below 2.5 µM in the assay on SK-OV-3; 0.16 µM in assay [3]; 0.26 µM in assay [4]. The IC50 with HEK293, in the assay on A549 and in the assay with HT29 was below 2.5 µM throughout.
As for `CCOc1nc2cc(Cl)sc2nc1NC(=O)N1CCN(c2cc(C)cc(C)c2)CC1` [Example 5, N-(6-chloro-2-ethoxythieno[3,2-b]pyrazin-3-yl)-4-(3,5-dimethylphenyl)piperazin-1-carboxamide], the IC50 is below 2.5 µM in the assay on HUVEC; 2.35 µM in assay [1]; 2.32 µM in assay [2]; below 2.5 µM in the assay on SK-OV-3; 1.22 µM in assay [3]; 1.72 µM in assay [4]. The IC50 in the assay on HEK293, in the assay with A549 and in the assay with HT29 was below 2.5 µM in each case.
As to `COc1cc(C)cc(N2CCN(C(=O)Nc3nc4sccc4nc3OC)CC2)c1` [Example 21, 4-(3-methoxy-5-methylphenyl)-N-(2-methoxythieno[3,2-b]pyrazin-3-yl)piperazin-1-carboxamide], the IC50 was below 2.5 µM with HUVEC; below 2.5 µM in assay [1]; 2.12 µM in assay [2]; 1.85 µM in the assay on SK-OV-3; 2.21 µM in [3]; 1.74 µM in assay [4]. The IC50 with HEK293 amounted to 1.25 µM; in the assay with A549, 1.63 µM; in the assay with HT29, 1.85 µM.
Take `CC(C)Oc1nc2ccsc2nc1NC(=O)N1CCN(c2cc(F)cc(F)c2)CC1` [Example 18, 4-(3,5-difluorophenyl)-N-(2-isopropoxythieno[3,2-b]pyrazin-3-yl)piperazin-1-carboxamide]: the IC50 (with HUVEC; in assay [1]; in assay [2]; in the assay with SK-OV-3; in [3]; in assay [4]) was below 2.5 µM throughout. Moreover, the IC50 in the assay with HEK293, in the assay on A549 and in the assay on HT29 was below 2.5 µM in each case.
Consider `COc1nc2ccsc2nc1NC(=O)N1CCN(c2cccc(OC(F)(F)F)c2)CC1` [Example 24, N-(2-methoxythieno[3,2-b]pyrazin-3-yl)-4-(3-(trifluoromethoxy)phenyl)piperazin-1-carboxamide], for which the IC50 in the assay on HUVEC is below 2.5 µM; in assay [1] it was below 2.5 µM; in assay [2], 0.44 µM; in the assay on SK-OV-3, 0.12 µM; in assay [3], 0.12 µM; in [4], 0.36 µM. Moreover, the IC50 with HEK293 was found to be 0.25 µM; with A549, 0.87 µM; in the assay with HT29, 0.36 µM.
Regarding `CCOc1nc2ccsc2nc1NC(=O)N1CCN(c2cc(C)cc(C)c2)CC1` [Example 14, 4-(3,5-dimethylphenyl)-N-(2-ethoxythieno[3,2-b]pyrazin-3-yl)piperazin-1-carboxamide], the IC50 in the assay on HUVEC is below 2.5 µM; in assay [1], 0.65 µM; in assay [2] it was below 2.5 µM; with SK-OV-3 it was below 2.5 µM; in assay [3], 0.34 µM; in [4] it was 0.57 µM. Also, the IC50 in the assay with HEK293, in the assay on A549 and in the assay with HT29 was below 2.5 µM each time.
For the compound `COc1cc(OC)cc(N2CCN(C(=O)Nc3nc4sccc4nc3OC(C)C)CC2)c1` [Example 16, 4-(3,5-dimethoxyphenyl)-N-(2-isopropoxythieno[3,2-b]pyrazin-3-yl)piperazin-1-carboxamide], the IC50 with HUVEC is below 2.5 µM; in [1], below 2.5 µM; in assay [2], below 2.5 µM; in the assay with SK-OV-3, below 2.5 µM; in assay [3] it was 2.12 µM; in assay [4] it was below 2.5 µM. For the same compound, the IC50 in the assay with HEK293, with A549 and in the assay on HT29 was below 2.5 µM in each case.
As to `CCOc1nc2cc(Cl)sc2nc1NC(=O)N1CCN(c2cc(OC)cc(OC)c2)CC1` [Example 4, N-(6-chloro-2-ethoxythieno[3,2-b]pyrazin-3-yl)-4-(3,5-dimethoxyphenyl)piperazin-1-carboxamide], the IC50 with HUVEC was 2.25 µM; in [1], 1.54 µM; in assay [2], 1.28 µM; with SK-OV-3, below 2.5 µM; in assay [3], 0.63 µM; in assay [4], 0.54 µM. For the same compound, the IC50 in the assay on HEK293, in the assay with A549 and in the assay with HT29 was below 2.5 µM in each case.
`COc1nc2ccsc2nc1NC(=O)N1CCN(c2cc(F)cc(OC(F)(F)F)c2)CC1` [Example 26, 4-(3-fluoro-5-(trifluoromethoxy)phenyl)-N-(2-methoxythieno[3,2-b]pyrazin-3-yl)piperazin-1-carboxamide]: the IC50 (in the assay with HUVEC; in assay [1]; in assay [2]; with SK-OV-3; in assay [3]; in assay [4]) was below 2.5 µM in each case. Moreover, the IC50 with HEK293, in the assay with A549 and in the assay with HT29 was below 2.5 µM throughout.
Regarding `COc1nc2ccsc2nc1NC(=O)N1CCN(c2cc(C)cc(OC(F)(F)F)c2)CC1` [Example 19, N-(2-methoxythieno[3,2-b]pyrazin-3-yl)-4-(3-methyl-5-(trifluoromethoxy)phenyl)piperazin-1-carboxamide], the IC50 in the assay on HUVEC was 0.68 µM; in [1], 1.12 µM; in [2] it was 0.58 µM; in the assay with SK-OV-3, below 2.5 µM; in [3] it was below 2.5 µM; in [4] it was 0.25 µM. Besides, the IC50 with HEK293 was determined as 1.23 µM; in the assay on A549, 1.52 µM; in the assay with HT29, 0.71 µM.
Turning to `COc1nc2ccsc2nc1NC(=O)N1CCN(c2cc(C)cc(C)c2)CC1` [Example 11, 4-(3,5-dimethylphenyl)-N-(2-methoxythieno[3,2-b]pyrazin-3-yl)piperazin-1-carboxamide], the IC50 with HUVEC was found to be 0.07 µM; in assay [1], 0.41 µM; in assay [2], 0.24 µM; in the assay with SK-OV-3, 0.27 µM; in [3] it was 0.07 µM; in assay [4], 0.07 µM. The IC50 in the assay with HEK293 amounted to 0.65 µM; in the assay on A549 it was 1.31 µM; with HT29, 0.31 µM.
`COc1cc(OC(F)(F)F)cc(N2CCN(C(=O)Nc3nc4sccc4nc3OC)CC2)c1` [Example 25, 4-(3-methoxy-5-(trifluoromethoxy)phenyl)-N-(2-methoxythieno[3,2-b]pyrazin-3-yl)piperazin-1-carboxamide]: the IC50 with HUVEC is 0.13 µM; in assay [1] it was 0.17 µM; in [2], 0.08 µM; with SK-OV-3, 0.63 µM; in assay [3], 0.15 µM; in assay [4] it was below 2.5 µM. In addition, the IC50 in the assay with HEK293 amounted to 0.36 µM; with A549, 0.22 µM; in the assay with HT29, 0.25 µM.
